For assay [1], the system named is a variety of human tumor cell lines. As to conditions: cited from earlier work.
Assay [2] relates to MKN45 cell. Briefly: ATP cytotoxicity test (CellTiter-Glo, 72 hours) in MKN45. It counts as cell-based, human. As for the experimental part: In order to assess the toxic effects of the ADC molecules of the present invention on cells, the ATP toxicity test was performed. ATP is an indicator of the metabolism of living cells, and the detection of ATP can reflect the effect of the toxicity of molecules on cells.
HepG2 cells (Chinese Academy of Sciences cell bank, Cat # TCHu 72) were cultivated in EMEM complete medium containing 10% FBS, and MKN45 cells were cultivated in RPMI1640 complete medium containing 10% FBS. Trypsinization was performed for 2-3 min by adding 2-3 ml trypsin, 10-15 ml complete medium was added to elute the trypsinized cells when the trypsinization was complete, and the cells were centrifuged at 1000 rpm for 3 min. The supernatant was discarded, 10-20 ml complete medium was added to resuspend the cells to obtain a single cell suspension, and the cell density was adjusted to 4×10^4 cells/ml. 0.1 ml of the above cell suspension was added to each well of a 96-well cell culture plate and cultivated in an incubator at 37° C. in 5% CO2. […] The chemiluminescence was measured by a microplate reader (VICTOR 3, PerkinElmer), and the result was analyzed by GraphPad Prism (version 5.0) software.
A general note: ATP-based viability assays read luminescence as a measure of living cells.

The test system of assay [3] is HepG2 cell. The experiment in a line: ATP cytotoxicity test (CellTiter-Glo, 72 hours) in HepG2. It counts as cell-based, human.
Experimental: HepG2 cells (Chinese Academy of Sciences cell bank, Cat # TCHu 72) were cultivated in EMEM complete medium containing 10% FBS, and MKN45 cells were cultivated in RPMI1640 complete medium containing 10% FBS. Trypsinization was performed for 2-3 min by adding 2-3 ml trypsin, 10-15 ml complete medium was added to elute the trypsinized cells when the trypsinization was complete, and the cells were centrifuged at 1000 rpm for 3 min. The supernatant was discarded, 10-20 ml complete medium was added to resuspend the cells to obtain a single cell suspension, and the cell density was adjusted to 4×10^4 cells/ml. 0.1 ml of the above cell suspension was added to each well of a 96-well cell culture plate and cultivated in an incubator at 37° C. in 5% CO2. […] Detection was performed according to the instructions of CellTiter-Glo® Luminescent Cell Viability Assay kit (Promega, Cat # G7571). The chemiluminescence was measured by a microplate reader (VICTOR 3, PerkinElmer), and the result was analyzed by GraphPad Prism (version 5.0) software.
Assay [4] has as its target T1, human c-Met-His (Homo sapiens, UniProt P08581).
T1 construct: His (C); made in house; host or cells: 293F cells
The experiment in a line: ELISA binding of c-Met antibody to c-Met antigen. As to conditions: hybridoma fusion clones, ELISA read at 450 nm. As for the experimental part:
This experiment uses enzyme linked immunosorbent assay (ELISA) to detect affinity of c-Met antibody to c-Met antigen in vitro (including supernatant of hybridoma or recombinantly expressed monoclonal antibodies).
Experimental procedures: Coating buffer (PBS; Hyclone, Cat No.: SH30256.01B) was used to dilute antigen (human c-Met-His, example 1) to 2 μg/ml, which was added to 96-well plate with 100 μl/well (Costar 9018, Cat No.: 03113024) and incubated overnight at 4′C. […] The plate was read with plate reader at 450 nm.
After immunization, mice with a serum titer higher than 1:10^5 were selected for fusion. Mouse B-cells and myeloma cells (SP2/0, ATCC number: CRL-1581™) were prepared respectively in aseptic conditions and counted. […] The next day, positive clones were detected by ELISA (see Methods in Example 2).

Assay [5] concerns MKN45 cells. Briefly: Inhibition of proliferation of MKN45 gastric cancer cells (CellTiter-Glo, 5 days). The assay is classed as cell-based, human. As to conditions: monoclone culture supernatant, 5 days. The source says:
The clones above were selected and further cultured to obtain monoclones. After verification of binding activity by ELISA, monoclones were selected for cultivation, and the resulting supernatant was subjected to a cell viability assay. According to the experiment principle, anti-human c-Met antibodies of the invention are able to inhibit phosphorylation of c-Met expressed on the surface of human gastric cancer cell line MKN45, thereby inhibiting the proliferation of MNK45 cells.
Human gastric cancer cells (MKN45, JCRB, JCRB0254, P11) were added to a 96-well cell culture plate (costar, #3799) at 1×10^5 cells/mL and 50 μl/well. The medium was RPMI1640 medium: (GIBCO, cat #11835)+10% FBS (GIBCO-10099141). Anti-human c-Met antibodies to be tested were added at 50 μl/well, and the plate was cultured for 5 days in incubator at 37′C (Manufacture: SANYO; Equipment No. TINC035). CellTiter-Glo® Luminescent Cell Viability Assay (Promega, G7573) was used, and the proliferation of cells was detected according to the instructions. The plate was read by a PerkinElmer plate reader, TREA001-RDA-IBA100. The following formula was used to calculate the percentage proliferation of cells: % proliferation of cells=(1−cell reads in experimental group/cell reads in untreated group)×100%.

Like-named read-outs stand apart in the source and are kept apart here. *1 amine or outer side, *2 acyl side, *3 side chain or, on linkers, in order; H or OH if unused. Where a SMILES comes first, the peptide text is derived from it. [ ]: non-standard residue; d: D form. X1 = CO[C@H]([C@@H](C)C(=O)[*:2])[C@@H]1C[C@@H]2C[C@@H]2N1[*:1]; Dolaproine = CO[C@@H]([C@@H]1CCCN1)[C@@H](C)C(=O)O; Dil = CC[C@H](C)[C@H](NC)[C@@H](CC(=O)O)OC; Phe(2-F) = N[C@@H](Cc1ccccc1F)C(=O)O; NMeV = CN[C@H](C(=O)O)C(C)C

Consider 4 molecules from patent US10543284B2, “Anti-c-Met antibody and anti-c-Met antibody-cytotoxic drug conjugate and pharmaceutical use thereof” (Suzhou Suncadia Biopharmaceuticals Co., Ltd., priority 2015, dated 2020).

As a reminder, the IC50 is the midpoint of a concentration-inhibition curve. Low readings indicate inhibition by little substance, high ones a need for much substance.

T1 sequence (P08581 25-932 limits assumed): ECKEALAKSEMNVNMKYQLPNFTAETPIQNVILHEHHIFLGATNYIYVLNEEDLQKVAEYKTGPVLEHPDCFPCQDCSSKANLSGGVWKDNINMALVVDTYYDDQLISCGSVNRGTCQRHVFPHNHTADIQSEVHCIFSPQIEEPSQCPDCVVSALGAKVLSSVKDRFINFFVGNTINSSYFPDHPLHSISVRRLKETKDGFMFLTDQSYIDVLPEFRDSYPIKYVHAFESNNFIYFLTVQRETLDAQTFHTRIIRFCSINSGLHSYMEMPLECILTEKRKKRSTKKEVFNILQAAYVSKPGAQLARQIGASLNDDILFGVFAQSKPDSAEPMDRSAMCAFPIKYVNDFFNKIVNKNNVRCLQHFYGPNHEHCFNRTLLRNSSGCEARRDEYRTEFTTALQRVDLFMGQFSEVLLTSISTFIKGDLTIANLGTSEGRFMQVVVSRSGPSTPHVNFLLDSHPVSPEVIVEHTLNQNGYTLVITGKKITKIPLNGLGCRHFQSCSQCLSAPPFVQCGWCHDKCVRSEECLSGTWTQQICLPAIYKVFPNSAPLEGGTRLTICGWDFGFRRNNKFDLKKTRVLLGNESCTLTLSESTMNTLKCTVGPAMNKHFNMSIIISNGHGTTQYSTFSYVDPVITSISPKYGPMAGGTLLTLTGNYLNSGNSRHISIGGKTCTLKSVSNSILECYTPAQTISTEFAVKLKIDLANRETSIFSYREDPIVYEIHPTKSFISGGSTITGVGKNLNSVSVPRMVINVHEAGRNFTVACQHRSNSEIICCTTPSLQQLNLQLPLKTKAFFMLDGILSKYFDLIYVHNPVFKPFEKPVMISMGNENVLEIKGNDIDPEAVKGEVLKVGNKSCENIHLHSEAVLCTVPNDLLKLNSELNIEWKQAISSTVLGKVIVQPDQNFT

For the molecule `CC[C@H](C)C([C@@H](CC(=O)N1CCC[C@H]1[C@H](OC)[C@@H](C)C(=O)N[C@H](C)[C@@H](O)c1ccccc1)OC)N(C)C(=O)[C@@H](NC(=O)[C@@H](NC)C(C)C)C(C)C` (stereo partly shown) [MMAE, Monomethyl aurantatin E], in assay [1], the “inhibitory activities against a variety of human tumor cell lines” value is “less than one nanomolar”. Consider `CC[C@H](C)[C@@H]([C@@H](CC(=O)N1CCC[C@H]1[C@H](OC)[C@@H](C)C(=O)N[C@@H](Cc1ccccc1)C(=O)O)OC)N(C)C(=O)[C@@H](NC(=O)[C@@H](NC)C(C)C)C(C)C` [MMAF, reference compound] (H-[NMeV]V[Dil][Dolaproine]F-OH), for which the IC50 was 0.85 nM in assay [2] and 4.88 nM in assay [3] (ND: No activity was detected). As for `CC[C@H](C)[C@@H]([C@@H](CC(=O)N1[C@H]2C[C@H]2C[C@H]1[C@H](OC)[C@@H](C)C(=O)N[C@@H](Cc1ccccc1F)C(=O)O)OC)N(C)C(=O)[C@@H](NC(=O)[C@@H](NC)C(C)C)C(C)C` [12 g, (S)-2-((2R,3R)-3-((1S,3S,5S)-2-((3R,4S,5S)-4-((S)—N,3-dimethyl-2-((S)-3-methyl-2-(methylamino)butyramide)butyramide)-3-methoxy-5-methylheptanoyl)-2-azabicyclo[3.1.0]hexane-3-yl)-3-methoxy-2-methylpropanamido)-3-(2-fluorophenyl)propionic acid] (H-[NMeV]V[Dil][X1][Phe(2-F)]-OH), the IC50 was 79.4 nM in assay [2] (Homo sapiens, MKN-45) and 401 nM in assay [3] (Homo sapiens, HepG2, ND: No activity was detected).

B1: Ab-5: mouse hybridoma cell monoclonal antibody; heavy chain variable region SEQ ID NO: 4, light chain variable region SEQ ID NO: 5 (antibody, V domains shown)
VH: QVQLKQSGPGLVQPSQSLSITCTVSGFSLPNYGVHWVRQSPGKGLEWLGVIWSGGSTNYAAAFVSRLRISKDNSKSQVFFEMNSLQADDTAVYYCARNHDNPYNYAMDYWGQGTTVTVSS
VL: DIVLTQSPGSLAVYLGQRATISCRANKSVSTSTYNYLHWYQQKPGQPPKLLIYLASNLASGVPARFSGSGSGTDFTLNIHPLEEEDAATYYCQHSRDLPPTFGAGTKLELKR
modifications: Murine
On to B1, for which the “Detection Results (OD450)” value in assay [4] is 1.64. For the same molecule, the “MKN45 inhibition percentage (%)” value in assay [5] amounted to 77.4%.
